Measured values from ChEMBL document CHEMBL1133126, “Non-peptidic phenyl-based thrombin inhibitors: exploring structural requirements of the S1 specificity pocket with amidines” (Bioorg Med Chem Lett, 2000).
Blank lines part the entries; values can stand above or below the molecule they belong to.

Assays:
Serine protease 1 = target: T1, Serine protease 1 (Bos taurus, UniProt P00760); assay: Compound was evaluated for inhibition of Trypsin
T1 sequence (P00760 whole entry): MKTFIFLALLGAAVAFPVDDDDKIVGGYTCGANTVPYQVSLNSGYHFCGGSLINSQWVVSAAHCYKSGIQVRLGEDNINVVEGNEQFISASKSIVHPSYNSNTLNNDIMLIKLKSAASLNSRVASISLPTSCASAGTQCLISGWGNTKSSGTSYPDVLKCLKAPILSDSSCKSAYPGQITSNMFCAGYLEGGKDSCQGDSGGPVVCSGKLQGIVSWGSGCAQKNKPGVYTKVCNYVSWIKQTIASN

Coagulation factor X [1] = target: T2, Coagulation factor X (Homo sapiens, UniProt P00742); assay: Compound was evaluated for inhibition of Coagulation factor X
Prothrombin = Prothrombin (Homo sapiens, UniProt P00734); assay: Compound was evaluated for inhibition of Thrombin
[2] = target: T3, Serine protease 1 (Bos taurus) (UniProt P00760); assay: Compound was evaluated for inhibition of Trypsin at uM; settings: concentration not given here
T3 sequence (whole entry): T1 sequence (P00760 whole entry)

[3] = target: T4, Chymotrypsin-C (Homo sapiens) (UniProt Q99895); assay: Compound was evaluated for inhibition of Serine protease chymotrypsin at 15 uM
T4 sequence (whole entry): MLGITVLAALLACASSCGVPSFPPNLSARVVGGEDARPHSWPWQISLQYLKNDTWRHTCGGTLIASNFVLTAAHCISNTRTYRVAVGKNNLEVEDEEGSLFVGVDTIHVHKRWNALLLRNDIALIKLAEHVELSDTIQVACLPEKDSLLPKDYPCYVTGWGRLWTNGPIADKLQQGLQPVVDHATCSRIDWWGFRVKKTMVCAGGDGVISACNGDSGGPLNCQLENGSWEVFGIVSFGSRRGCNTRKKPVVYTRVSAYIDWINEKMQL

Coagulation factor X [4] = target: T2, Coagulation factor X; assay: Compound was evaluated for inhibition of Coagulation factor X at 7.5 uM
[5] = target: T4, Chymotrypsin-C (Homo sapiens); assay: Compound was evaluated for inhibition of Serine protease chymotrypsin at 1 uM
[6] = target: T3, Serine protease 1 (Bos taurus); assay: Compound was evaluated for inhibition of Trypsin at 1 uM
Coagulation factor X [7] = target: T2, Coagulation factor X; assay: Compound was evaluated for inhibition of Coagulation factor X at 1 uM
Coagulation factor X [8] = target: T2, Coagulation factor X; assay: Compound was evaluated for inhibition of Coagulation factor X at 1.6 uM
[9] = target: T3, Serine protease 1 (Bos taurus); assay: Compound was evaluated for inhibition of Trypsin at 1.6 uM
[10] = target: T4, Chymotrypsin-C (Homo sapiens); assay: Compound was evaluated for inhibition of Serine protease chymotrypsin at 1.7 uM
Coagulation factor X [11] = target: T2, Coagulation factor X; assay: Compound was evaluated for inhibition of Coagulation factor X at […]
[12] = target: T3, Serine protease 1 (Bos taurus); assay: Compound was evaluated for inhibition of Trypsin at 15 uM
[13] = target: T4, Chymotrypsin-C (Homo sapiens); assay: Compound was evaluated for inhibition of Serine protease chymotrypsin at […]

T2 sequence (P00742 41-179 limits assumed): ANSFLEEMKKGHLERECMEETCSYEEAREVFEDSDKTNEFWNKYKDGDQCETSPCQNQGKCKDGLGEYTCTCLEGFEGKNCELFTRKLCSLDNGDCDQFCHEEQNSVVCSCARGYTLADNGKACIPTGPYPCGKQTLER
T2 sequence (P00742 235-488 limits assumed): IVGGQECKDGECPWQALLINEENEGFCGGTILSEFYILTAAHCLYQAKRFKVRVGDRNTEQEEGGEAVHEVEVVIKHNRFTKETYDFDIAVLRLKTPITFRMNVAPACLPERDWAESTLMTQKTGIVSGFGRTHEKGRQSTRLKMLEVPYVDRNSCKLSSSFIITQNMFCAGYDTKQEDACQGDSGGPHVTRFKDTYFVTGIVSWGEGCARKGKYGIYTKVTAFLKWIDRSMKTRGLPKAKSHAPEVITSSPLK

SMILES: Cc1cc(OCCCC(=N)N)cc(OS(=O)(=O)c2ccccc2Cl)c1
Ki (Prothrombin): 460 nM
inhibition [2]: 0%
inhibition [3]: 0%
inhibition (Coagulation factor X [4]): 0%

SMILES: Cc1cc(OCc2ccc(C(=N)N)cc2)cc(OS(=O)(=O)c2ccccc2Cl)c1
Ki (Prothrombin): 110 nM
Ki (Serine protease 1): 2700 nM
Ki (Coagulation factor X [1]): 17 µM
inhibition [10]: 0%

SMILES: Cc1cc(OCCCCN=C(N)N)cc(OS(=O)(=O)c2ccccc2Cl)c1
Ki (Serine protease 1): 42000 nM

SMILES: Cc1cc(OCCCCCC(=N)N)cc(OS(=O)(=O)c2ccccc2Cl)c1
Ki (Prothrombin): 69 nM
inhibition (Coagulation factor X [11]): 0%
inhibition [12]: 0%

Other lines, results leading:

Ki (Serine protease 1): > 15000 nM
Ki (Coagulation factor X [1]): > 15 µM
SMILES: Cc1cc(OCC2CCN(C(=N)N)CC2)cc(OS(=O)(=O)c2ccccc2Cl)c1

inhibition [5]: 0%
inhibition [6]: 0%
inhibition (Coagulation factor X [7]): 0%
SMILES: CC(=N)N1CCC(COc2cc(C)cc(OS(=O)(=O)c3ccccc3Cl)c2)CC1

Ki (Prothrombin): 2100 nM
inhibition (Coagulation factor X [8]): 0%
inhibition [9]: 0%
SMILES: Cc1cc(OC[C@H]2CC[C@H](C(=N)N)CC2)cc(OS(=O)(=O)c2ccccc2Cl)c1

Ki (Prothrombin): 99 nM
inhibition [13]: 0%
Ki (Serine protease 1): 1500 nM
SMILES: Cc1cc(OCc2cccc(C(=N)N)c2)cc(OS(=O)(=O)c2ccccc2Cl)c1
